Changes are numbered by the printed parent chain.
Key:
[1] = PK studies, brain and plasma levels by LC-MS/MS; format: in vivo, Mice; conditions: 50 mg/kg SC
Description: PK studies. […] Plasma and brain samples were rapidly frozen on dry ice.
Drug accumulation in the brain was examined following SC injection (FIG. 4C; 50 mg/kg).

[2] = parameters: species or system Mice; conditions: in vivo
KCC2-S940A = molecular target: T1, KCC2-S940A (Homo sapiens, UniProt Q9H2X9, S963A); experiment: Tl+ flux assay, HEK-293 cells expressing KCC2-S940A; format: cell-based
T1 construct: expressed in transfected cells; host or cells: HEK-293
T1 sequence (Q9H2X9 1-1116 isoform Q9H2X9-2 S940A): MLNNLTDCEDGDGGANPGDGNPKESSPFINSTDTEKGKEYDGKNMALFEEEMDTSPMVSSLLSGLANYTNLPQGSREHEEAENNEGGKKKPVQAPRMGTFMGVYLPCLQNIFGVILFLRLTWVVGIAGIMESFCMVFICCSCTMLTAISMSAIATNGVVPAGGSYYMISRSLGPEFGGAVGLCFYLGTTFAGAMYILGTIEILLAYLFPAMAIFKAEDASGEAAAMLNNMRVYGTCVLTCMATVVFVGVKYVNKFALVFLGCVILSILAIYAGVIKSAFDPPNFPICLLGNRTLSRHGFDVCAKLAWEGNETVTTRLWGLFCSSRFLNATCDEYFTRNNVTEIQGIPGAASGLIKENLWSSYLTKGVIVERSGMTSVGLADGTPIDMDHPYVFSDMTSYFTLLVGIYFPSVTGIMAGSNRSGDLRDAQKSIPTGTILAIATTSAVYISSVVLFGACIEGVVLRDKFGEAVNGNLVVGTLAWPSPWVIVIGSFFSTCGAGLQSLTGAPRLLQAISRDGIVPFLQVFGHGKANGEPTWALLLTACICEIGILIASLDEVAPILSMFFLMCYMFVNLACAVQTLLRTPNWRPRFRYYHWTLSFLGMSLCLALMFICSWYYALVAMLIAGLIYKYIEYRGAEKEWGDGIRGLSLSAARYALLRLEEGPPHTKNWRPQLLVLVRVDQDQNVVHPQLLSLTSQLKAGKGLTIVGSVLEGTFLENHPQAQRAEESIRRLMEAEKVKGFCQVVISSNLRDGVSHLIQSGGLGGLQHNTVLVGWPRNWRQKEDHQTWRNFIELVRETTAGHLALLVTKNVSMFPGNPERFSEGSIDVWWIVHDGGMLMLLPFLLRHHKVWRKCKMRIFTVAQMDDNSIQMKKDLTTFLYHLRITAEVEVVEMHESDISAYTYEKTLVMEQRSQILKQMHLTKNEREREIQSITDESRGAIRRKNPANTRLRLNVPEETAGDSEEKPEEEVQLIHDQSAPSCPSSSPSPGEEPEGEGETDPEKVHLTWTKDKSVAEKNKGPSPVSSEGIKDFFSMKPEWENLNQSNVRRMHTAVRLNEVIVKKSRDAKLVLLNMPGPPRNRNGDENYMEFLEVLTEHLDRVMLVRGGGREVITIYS
Description: FLIPR TI Flux assay. HEK-293 cells were washed with HBSS, and then incubated with loading buffer containing TI sensitive fluorescent dye (https://www.moleculardevices.com), 20 μM bumetanide 20 μM ouabain and 2.5 mM probenecid for 1 h at room temperature (RT) under control conditions or with drugs in the dark using a FlexStation 3 microplate reader (Molecular Devices) and imaged […] for 30 min. Stimulus buffer was added containing 5 mM K^+/0.5 mM Tl^+ and cells were imaged every 1.5 over a 190 second time course The initial rate Tl^+ uptake (Relative Fluorescence Units (RFU) per second) was determined following addition of the stimulus buffer as outlined previously (Conway et al., 2017, supra) (Lee et al., 2022, supra).
Several studies have shown that the activity and plasma membrane accumulation of KCC2 is potentiated via phosphorylation of S940, a process mediated by the activity of protein kinase C and protein phosphatase 1 (Lee et al., 2011, supra, Lee et al., J Biol Chem 282, 29777-29784 (2007); Moore et al., Proc. Natl. Acad. Sci. U.S.A 115, 10166-10171 (2018); Moore et al., Trends Neurosci. 40, 555-571 (2017); Silayeva et al., Proc. Natl. Acad. Sci. U.S.A 112, 3523-3528 (2015)). […] Compared to KCC2, effects on KCC3, KCC4, and NKCC1 were only seen at concentrations more than 35-fold that of KCC2 (>100 μM) (FIG. 1G).

[3] = test system: panel of 144 protein kinases; experiment: panel of 144 protein kinases (SelectScreen; Thermofisher); format: biochemical; conditions: 144 protein kinases incl. PKC isoforms, OSR1, SPAK, WNK
[4] = test system: acute brain slices exposed to 0-Mg; experiment: late recurrent discharges in acute brain slices exposed to 0-Mg
KCC2 = molecular target: T2, KCC2 (Homo sapiens, UniProt Q9H2X9); experiment: cellular thermal shift assay (CETSA), HEK-293 cells expressing KCC2; format: binding
T2 construct: expressed in transfected cells; host or cells: HEK-293 (ATCC CRL-1573), transient transfection
T2 sequence (Q9H2X9 1-1116 isoform Q9H2X9-2): T1 sequence (Q9H2X9 1-1116 isoform Q9H2X9-2 S940A) with A940S
Description: Determining if compounds in SSA directly interact with KCC2. This was tested using a cellular thermal shift assay (CETSA), which measures the ability of a drug to modify the thermal stability of its target in whole cells (Kawatkar et al., ACS Chem. Biol. 14, 1913-1920 (2019); Martinez et al., Sci Rep 8, 9472 (2018)).
2×10^6 transfected HEK-293 cells were incubated with 30 μM drug or vehicle for 90 min at 37° C. and then heated from 37-58° C. for 5 min. Cells were rapidly chilled to 25° C. and NP40 was added to a final concentration […] to snap freezing in liquid nitrogen. Following 5 freeze/thaw cycles lysates were centrifuged at 12,000×g to remove denatured proteins and associated cell debris.
Aliquots of HEK-293 cells expressing KCC2 were exposed to 30 μM SSA, heated from 37-55° C. The remaining level of soluble native KCC2 at each temperature was measured by immunoblotting and normalized to the level seen at 37° C. which was given a value of 1. […] This panel included protein kinase C isoforms, OSR1, SPAK (STK39) and with-no-lysine kinases (WNK), all of which phosphorylate KCC2 on multiple residues to indirectly modify its activity (Kahle et al., 2013, supra; Smalley et al., 2020, supra).

[5] = test system: neuronal cell death in the hippocampus; experiment: neuronal cell death in the hippocampus, mice treated with Compound A and diazepam; format: in vivo; conditions: Compound A and diazepam vs diazepam alone

- accumulation in the brain at 30 min [1]: detected
- brain level 8 h later [1]: maintained
- time of maximal concentration in the brain [1]: 4 h
- gross effects on mouse behavior [2]: no gross effects on mouse behavior
- activity of KCC2-S940A construct (KCC2-S940A): increased the activity
- activity of kinase panel [3]: did not modify the activity
- direct binding to KCC2 (KCC2): capable of directly binding to KCC2
Compound: C[C@@H]1CN(c2nc3c(c(Nc4ccc(C5CCCCC5)cc4)n2)COC3)CCO1 [Compound A, (R)—N-(4-cyclohexylphenyl)-2-(2-methylmorpholino)-5,7-dihydrofuro[3,4-d]pyrimidin-4-amine]
- development of late recurrent discharges (LRDs) [4]: reduced
- neuronal cell death in the hippocampus [5]: significantly reduced
